From US20250289827A1, “MORPHIC FORMS OF A MUTANT BRAF DEGRADER AND METHODS OF MANUFACTURE THEREOF” (C4 THERAPEUTICS, INC., priority 2022, published 2025)

What was measured:
[1] = test system: HT-29 human colorectal cancer cell derived xenografts (CDX); assay: Efficacy in HT-29 CDX model of colorectal cancer; type: in vivo, BALB/c nude mice
Text: The endpoint for each individual mouse was reached when the mouse weight decreased by 20%.

[2] = Plasma and brain pharmacokinetics in A375-luciferase intracranial model; design: species or system BALB/c nude mice; conditions: mouse, in vivo
Description: To determine the level of CNS and plasma exposure of Compound 1 compared to encorafenib, a separate pharmacokinetics/pharmacodynamics (PK/PD) study was conducted. Mice were inoculated with luciferase tagged A375 cells as stated above. The tumors were left to establish and expand for 14 days before the study. […] Samples from 3 mice per treatment group were collected at 1, 12, 24, and 48 hours. To test the plasma samples, the mice were anesthetized, and blood was collected into a tube with EDTA-K2, centrifuged, transferred to a fresh tube, and stored frozen. Following blood collection, the mice were perfused for fifteen minutes, decapitated, and the brain was collected and frozen. The harvested plasma and brain were processed for pharmacokinetics analysis by LC/MS/MS with a concentration range of 1-1,000 ng/mL and pharmacodynamics analysis by Western Blot. The concentrations of Compound 1 and encorafenib found in the plasma is shown in FIG. 42, and the concentration found in the brain is shown in FIG. 43.

A375 cells = assay: A375 cell growth inhibition; type: cell-based; conditions: Homo sapiens, A-375, 96 hr
[3] = Water sorption and desorption (DVS) of Compound 1 Form B; type: physicochemical; conditions: for 1st desorp. Weight % change / 1st sorp. Weight % change / 2nd desorp. Weight % change / 2nd sorp. Weight % change: 25° C.
Description: Water sorption and desorption behavior of Compound 1 Form B was investigated by DVS at 25° C. with a cycle of 40-0-95-0-40% RH, dm/dt 0.002, min. equilibration time 60 min and maximum equilibration time 360 min XRPD was measured after the DVS test to determine form change.

[4] = Dry grinding simulation experiments; type: physicochemical
Description: About 20 mg of Compound 1 Form B was ground manually with a mortar and a pestle for 1, 2 and 5 min. Potential form change, and degree of crystallinity were evaluated by XRPD.

[5] = Crystallization at room temperature by slow evaporation; type: physicochemical
Description: About 30 mg of Compound 1 Form A was dissolved in 0.2-10 mL of solvents. Obtained solutions were filtered through a 0.45 μm syringe membrane filter. […] Solid residues were investigated by XRPD.

[6] = Equilibration under a temperature cycle (XRPD); type: physicochemical
Description: The equilibration was executed with a stirring bar on a magnetic stirring plate at a rate of 300 rpm. The obtained suspensions were filtered through a 0.45 µm nylon membrane filter by centrifugation at 14,000 rpm. Solid parts (wet cakes) were investigated by XRPD.

[7] = Acetone, temperature cycle 5° C. to 40° C.
[8] = Acetonitrile, temperature cycle 5° C. to 40° C.
[9] = DMF, temperature cycle 5° C. to 40° C.
[10] = Ethyl acetate, temperature cycle 5° C. to 40° C.
[11] = Isopropanol, temperature cycle 5° C. to 40° C.
[12] = Isopropyl acetate, temperature cycle 5° C. to 40° C.
[13] = Methanol, temperature cycle 5° C. to 40° C.
[14] = THF/heptane (v:v = 1:1), temperature cycle 5° C. to 40° C.
[15] = Toluene, temperature cycle 5° C. to 40° C.
[16] = temperature cycle, Acetone/water (v:v = 86:14) a.w. = 0.6
[17] = temperature cycle, Acetonitrile/water (v:v = 96:4) a.w. = 0.65
[18] = temperature cycle, DCM/methanol (v:v = 1:1)
[19] = temperature cycle, DMF/water (v:v = 30:70) a.w. = 0.9
[20] = temperature cycle, DMF/water (v:v = 73:27) a.w. = 0.6
[21] = temperature cycle, DMSO/water (v:v = 23:77) a.w. = 0.9
[22] = temperature cycle, DMSO/water (v:v = 57:43) a.w. = 0.6
[23] = temperature cycle, Methanol/water (v:v = 69:31) a.w. = 0.6
[24] = temperature cycle, THF/water (v:v = 82:18) a.w. = 0.9
[25] = temperature cycle, THF/water (v:v = 92:8) a.w. = 0.6

CCN(C)S(=O)(=O)Nc1ccc(F)c(Oc2ccc3ncn([C@H]4COC5(CCN(C(=O)CC6(O)CCN(c7cc8c(cc7F)c(N7CCC(=O)NC7=O)nn8C)CC6)CC5)C4)c(=O)c3c2)c1C#N [Compound 1, (3R)-3-[6-[2-cyano-3-[[ethyl(methyl)sulfamoyl]amino]-6-fluorophenoxy]-4-oxoquinazolin-3-yl]-8-[2-[1-[3-(2,4-dioxo-1,3-diazinan-1-yl)-5-fluoro-1-methylindazol-6-yl]-4-hydroxypiperidin-4-yl]acetyl]-1-oxa-8-azaspiro[4.5]decane]
Tumor response at end of study ([1]; 10 mg/kg PO BID plus cetuximab 11 mg/kg IP Q3D): tumor regression
Tumor response at end of study ([1]; 10 mg/kg PO BID, without cetuximab): tumor regression
Blood brain barrier penetration [2]: high level of blood brain barrier penetration
GI50 (A375 cells): 94 nM

CCN(C)S(=O)(=O)Nc1ccc(F)c(Oc2ccc3ncn([C@H]4COC5(CCN(C(=O)CC6(O)CCN(c7cc8c(cc7F)c(N7CCC(=O)NC7=O)nn8C)CC6)CC5)C4)c(=O)c3c2)c1C#N [Compound 1 Form B]
1st desorp. Weight % change ([3]; 0% RH): 0.0%
1st sorp. Weight % change ([3]; 0% RH): 0.0%
2nd desorp. Weight % change ([3]; 0% RH): 0.0%
2nd sorp. Weight % change ([3]; 0% RH): 0.0%
1st desorp. Weight % change ([3]; 10% RH): 0.1%
1st sorp. Weight % change ([3]; 10% RH): 0.1%
2nd desorp. Weight % change ([3]; 10% RH): 0.1%
2nd sorp. Weight % change ([3]; 10% RH): 0.1%
1st desorp. Weight % change ([3]; 20% RH): 0.3%
1st sorp. Weight % change ([3]; 20% RH): 0.2%
2nd desorp. Weight % change ([3]; 20% RH): 0.3%
2nd sorp. Weight % change ([3]; 20% RH): 0.2%
1st desorp. Weight % change ([3]; 30% RH): 0.4%
1st sorp. Weight % change ([3]; 30% RH): 0.3%
2nd desorp. Weight % change ([3]; 30% RH): 0.4%
2nd sorp. Weight % change ([3]; 30% RH): 0.3%
1st desorp. Weight % change ([3]; 40% RH): 0.5%
1st sorp. Weight % change ([3]; 40% RH): 0.4%
2nd desorp. Weight % change ([3]; 40% RH): 0.5%
2nd sorp. Weight % change ([3]; 40% RH): 0.4%
1st sorp. Weight % change ([3]; 50% RH): 0.5%
2nd desorp. Weight % change ([3]; 50% RH): 0.8%
1st sorp. Weight % change ([3]; 60% RH): 0.6%
2nd desorp. Weight % change ([3]; 60% RH): 0.9%
1st sorp. Weight % change ([3]; 70% RH): 0.7%
2nd desorp. Weight % change ([3]; 70% RH): 1.0%
1st sorp. Weight % change ([3]; 80% RH): 0.9%
2nd desorp. Weight % change ([3]; 80% RH): 1.2%
1st sorp. Weight % change ([3]; 90% RH): 1.2%
2nd desorp. Weight % change ([3]; 90% RH): 1.4%
1st sorp. Weight % change ([3]; 95% RH): 1.6%
2nd desorp. Weight % change ([3]; 95% RH): 1.6%
Crystallinity change after water sorption and desorption ([3]; DVS 25° C., 40-0-95-0-40% RH cycle): no changes in crystallinity
Water uptake ([3]; DVS 25° C., at 95% RH): 1.6%
Morphic form stability under dry grinding [4]: excellent morphic form stability
Comments ([4]; grinding time 1 min): Slight decrease in crystallinity.
XRPD ([4]; grinding time 1 min): Form B
Comments ([4]; grinding time 2 min): Slight decrease in crystallinity.
XRPD ([4]; grinding time 2 min): Form B
Comments ([4]; grinding time 5 min): Slight decrease in crystallinity.
XRPD ([4]; grinding time 5 min): Form B

CCN(C)S(=O)(=O)Nc1ccc(F)c(Oc2ccc3ncn([C@H]4COC5(CCN(C(=O)CC6(O)CCN(c7cc8c(cc7F)c(N7CCC(=O)NC7=O)nn8C)CC6)CC5)C4)c(=O)c3c2)c1C#N [Compound 1 Form A]
Comments ([5]; 1,4-Dioxane): Glassy material
Comments ([5]; Acetone): Glassy material
XRPD ([5]; Acetonitrile): Amorphous form
XRPD ([5]; DCM): Almost amorphous form
XRPD ([5]; DCM/methanol (v:v = 1:1)): Almost amorphous form
XRPD ([5]; Ethyl acetate): Amorphous form
XRPD ([5]; Methanol): Almost amorphous form
Comments ([5]; Methyl ethyl ketone): Glassy material
Comments ([5]; THF): Glassy material
Comments ([6]; 1,4-Dioxane/heptane (v:v = 1:1), temperature cycle 5° C. to 40° C.): Sticky material
XRPD (solid form after equilibration) ([6]; 2-MeTHF, temperature cycle 5° C. to 40° C., about 20 cycles): Form C (about 20
Comments ([6]; 2-MeTHF, temperature cycle 5° C. to 40° C., after about 8 more cycles): Form C converted
Comments [6, 7]: Low crystallinity
XRPD (solid form after equilibration) [6, 7]: Form B
Comments (crystallinity) [6, 8]: Medium
XRPD (solid form after equilibration) [6, 8]: Form B
Comments ([6]; DCM/heptane (v:v = 1:1), temperature cycle 5° C. to 40° C.): Sticky material
Comments [6, 9]: Clear solution
Comments: concentration of clear solution [6, 9]: (About 500 mg/mL)
XRPD (solid form after equilibration) ([6]; Ethanol, temperature cycle 5° C. to 40° C.): Almost amorphous
Comments [6, 10]: Low crystallinity
XRPD (solid form after equilibration) [6, 10]: Form B
Comments [6, 11]: Low crystallinity
XRPD (solid form after equilibration) [6, 11]: Form A
Comments [6, 12]: Low crystallinity
XRPD (solid form after equilibration) [6, 12]: Form A
XRPD (solid form after equilibration) ([6]; MTBE, temperature cycle 5° C. to 40° C.): Almost amorphous
Comments [6, 13]: Low crystallinity
XRPD (solid form after equilibration) [6, 13]: Form B
XRPD (solid form after equilibration) ([6]; Methyl ethyl ketone, temperature cycle 5° C. to 40° C.): Almost amorphous
Comments [6, 14]: Low crystallinity
XRPD (solid form after equilibration) [6, 14]: Form B
Comments [6, 15]: Low crystallinity
XRPD (solid form after equilibration) [6, 15]: Form A
Comments ([6]; temperature cycle, Acetone/water (v:v = 36:64) a.w. = 0.9): Sticky material
Comments [6, 16]: Clear solution
Comments: concentration of clear solution [6, 16]: (About 500 mg/mL)
Comments ([6]; temperature cycle, Acetonitrile/water (v:v = 42:58) a.w. = 0.9): Sticky material
Comments [6, 17]: Medium crystallinity
XRPD [6, 17]: Form B**
Comments [6, 18]: Clear solution
Comments: concentration of clear solution [6, 18]: (About 500 mg/mL)
Comments [6, 19]: Low crystallinity
XRPD [6, 19]: Form B
Comments [6, 20]: Medium crystallinity
XRPD [6, 20]: Form B
Comments [6, 21]: Low crystallinity
XRPD [6, 21]: Form A
Comments [6, 22]: Low crystallinity
XRPD [6, 22]: Form A
Comments [6, 23]: Low crystallinity
XRPD [6, 23]: Form B
Comments [6, 24]: Clear solution
Comments: concentration of clear solution [6, 24]: (About 500 mg/mL)
Comments [6, 25]: Clear solution
Comments: concentration of clear solution [6, 25]: (About 500 mg/mL)
